Source: US20240287138A1, “CYCLIC PEPTIDES FOR INHIBITING TNF RECEPTOR 1 ACTIVITY” (Merck Sharp & Dohme LLC, priority 2023, published 2024)
Numbered stars: 1 amine (or outer) side, 2 acyl side, 3 side chain; on linkers, the order of the positions; unused ones are H or OH. Bridge positions count the residues as written; N and C are the ends. Square brackets hold non-standard residues; d marks the D form. Peptide text beside a SMILES is read from it. * marks the point of attachment. Trp(βS-Me,7-OMe) = COc1cccc2c([C@H](C)[C@H](N)C(=O)O)c[nH]c12; Morpholine(3S-CO,6,6-Me2) = CC1(C)CN[C@H](C(=O)O)CO1; Trp(7-CN) = N#Cc1cccc2c(C[C@H](N)C(=O)O)c[nH]c12; Trp(7-Cl) = N[C@@H](Cc1c[nH]c2c(Cl)cccc12)C(=O)O; X29 = NC(=O)Cc1cccc(C[C@H](N[*:1])C(=O)[*:2])c1; Phe(4-CONH2) = NC(=O)c1ccc(C[C@H](N)C(=O)O)cc1; Phe(4-COOH) = N[C@@H](Cc1ccc(C(=O)O)cc1)C(=O)O; Trp(7-aza) = N[C@@H](Cc1c[nH]c2ncccc12)C(=O)O; Pip(5R-OH) = O=C(O)[C@@H]1CC[C@@H](O)CN1; X1 = O=C([C@@H]1CC[C@H](N[*:1])C1)[*:2]; X19 = O=C([C@H](Cc1ccncn1)N[*:1])[*:2]; Pip(4-aza) = O=C(O)[C@@H]1CNCCN1; 4Pal = N[C@@H](Cc1ccncc1)C(=O)O; NMeE = CN[C@@H](CCC(=O)O)C(=O)O; dHyp = O=C(O)[C@H]1C[C@H](O)CN1; αMeS = C[C@](N)(CO)C(=O)O; Carboxymethyl = O=C(O)C*; Nle = CCCC[C@H](N)C(=O)O; Sar = CNCC(=O)O

Legend:
[1] = target: T1, human TNFR1 extracellular domain (ECD) protein (Homo sapiens, UniProt P19438); experiment: SPR binding affinity to captured human TNFR1 ECD
T1 construct: HRV 3C protease cleavage site (C); 6His (C, cleaved yes); made in house; host or cells: Sf21 insect cells (baculovirus), secreted
T1 sequence (P19438 30-211): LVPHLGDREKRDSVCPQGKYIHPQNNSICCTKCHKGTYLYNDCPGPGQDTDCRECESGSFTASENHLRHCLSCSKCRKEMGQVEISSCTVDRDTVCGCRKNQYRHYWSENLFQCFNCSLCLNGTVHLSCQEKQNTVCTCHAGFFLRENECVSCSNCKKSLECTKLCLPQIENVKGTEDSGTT
Outline: (§1)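 SPR kinetics: peptides over captured avi-biotinylated receptor ECDs, TNFR1 for affinity, TNFR2 run in parallel for off-target binding. Running buffer HEPES pH 7.4 with 150 mM NaCl, 3 mM EDTA, 0.05% P20, 2% DMSO; surface regenerated between analytes. Affinity derived from kon/koff.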

human TNFR2 ECD protein = target: T2, human TNFR2 ECD protein (Homo sapiens, UniProt P20333); experiment: SPR off-target binding (selectivity) to human TNFR2 ECD
T2 construct: HRV 3C protease cleavage site (C); 6His (C, cleaved yes); made in house; host or cells: Sf21 insect cells (baculovirus), secreted
T2 sequence (P20333 23-257): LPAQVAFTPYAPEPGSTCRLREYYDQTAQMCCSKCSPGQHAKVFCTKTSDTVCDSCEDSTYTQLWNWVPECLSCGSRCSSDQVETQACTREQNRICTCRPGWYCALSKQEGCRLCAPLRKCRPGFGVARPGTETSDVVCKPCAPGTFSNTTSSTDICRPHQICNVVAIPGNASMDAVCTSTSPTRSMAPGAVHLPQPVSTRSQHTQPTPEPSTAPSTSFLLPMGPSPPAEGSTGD
Outline: as §1

[2] = target: T3, TNFα-induced NF-κB signal transduction pathway (TNFR1 signaling) in THP-1 cells (Homo sapiens, UniProt P19438); experiment: THP-1 Lucia NF-κB reporter cell assay, inhibition of TNFα-induced NF-κB signaling; type: cell-based; conditions: THP-1 NF-κB Lucia reporter cells, 10 ng/mL TNFα, 16-18 h, secreted luciferase; read-out: THP-1 IC50
T3 sequence (P19438 30-455): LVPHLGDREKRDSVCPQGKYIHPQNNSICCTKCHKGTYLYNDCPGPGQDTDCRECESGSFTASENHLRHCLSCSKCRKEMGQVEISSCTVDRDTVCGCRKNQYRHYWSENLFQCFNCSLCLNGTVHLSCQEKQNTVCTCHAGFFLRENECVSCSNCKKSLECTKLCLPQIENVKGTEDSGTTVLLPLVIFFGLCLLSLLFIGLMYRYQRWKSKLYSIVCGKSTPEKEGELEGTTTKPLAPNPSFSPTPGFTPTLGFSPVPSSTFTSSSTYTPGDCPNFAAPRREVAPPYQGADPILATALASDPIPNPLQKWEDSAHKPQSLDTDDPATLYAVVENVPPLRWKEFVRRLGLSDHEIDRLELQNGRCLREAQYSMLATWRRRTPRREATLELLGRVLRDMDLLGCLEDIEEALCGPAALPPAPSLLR
Outline: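 THP-1 Lucia NF-κB cells, 20k/well, no selection antibiotics; peptide pre-inc 1 h 37 °C; + recombinant human TNFα 10 ng/mL final; o.n.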

Compound	Kd [1]	Kd (human TNFR2 ECD protein)	IC50 [2]
CCCC[C@@H]1NC(=O)CSC[C@@H](C(N)=O)NC(=O)[C@H]([C@@H](C)c2c[nH]c3c(OC)cccc23)NC(=O)CN(C)C(=O)[C@H](Cc2ccc(O)cc2)NC(=O)[C@H](Cc2ccc(C(=O)O)cc2)NC(=O)[C@](C)(CO)NC(=O)[C@H](Cc2c[nH]c3c(Cl)cccc23)NC(=O)[C@H](Cc2ccc(OCC(=O)O)cc2)NC(=O)[C@H](CC(N)=O)NC(=O)[C@H](CCC(=O)O)N(C)C(=O)[C@H](Cc2c[nH]c3ccccc23)NC(=O)[C@@H]2COC(C)(C)CN2C(=O)[C@H](Cc2ccncc2)NC1=O [SEQ ID NO. 179] ({CH2CO}-[Nle][4Pal][Morpholine(3S-CO,6,6-Me2)]W[NMeE]NY(Carboxymethyl)[Trp(7-Cl)][αMeS][Phe(4-COOH)]Y[Sar][Trp(βS-Me,7-OMe)]C-NH2; thioether N-14)	0.14 nM	> 1000 nM	2.4 nM
CCCC[C@@H]1NC(=O)[C@@H]2CC[C@@H](C2)NC(=O)[C@H]([C@@H](C)c2c[nH]c3c(OC)cccc23)NC(=O)CN(C)C(=O)[C@H](Cc2ccc(C(=O)O)cc2)NC(=O)[C@H](Cc2ccc(C(N)=O)cc2)NC(=O)[C@](C)(CO)NC(=O)[C@H](Cc2c[nH]c3c(Cl)cccc23)NC(=O)[C@H](Cc2ccncn2)NC(=O)[C@H](CC(N)=O)NC(=O)[C@H]2C[C@H](O)CN2C(=O)[C@H](Cc2c[nH]c3ncccc23)NC(=O)[C@@H]2CC[C@@H](O)CN2C(=O)[C@H](Cc2ccncc2)NC1=O [SEQ ID NO. 159] (cyclo([4Pal][Pip(5R-OH)][Trp(7-aza)][dHyp]N[X19][Trp(7-Cl)][αMeS][Phe(4-CONH2)][Phe(4-COOH)][Sar][Trp(βS-Me,7-OMe)][X1][Nle]))	0.05 nM	> 1000 nM	0.8 nM
CCCC[C@@H]1NC(=O)[C@@H]2CC[C@@H](C2)NC(=O)[C@H]([C@@H](C)c2c[nH]c3c(OC)cccc23)NC(=O)CN(C)C(=O)[C@H](Cc2ccc(C(N)=O)cc2)NC(=O)[C@H](Cc2ccc(C(N)=O)cc2)NC(=O)[C@](C)(CO)NC(=O)[C@H](Cc2c[nH]c3c(C#N)cccc23)NC(=O)[C@H](Cc2ccc(C(=O)O)cc2)NC(=O)[C@H](CC(N)=O)NC(=O)[C@H](CCC(=O)O)N(C)C(=O)[C@H](Cc2c[nH]c3ccccc23)NC(=O)[C@@H]2CC[C@@H](O)CN2C(=O)[C@H](Cc2ccncc2)NC1=O [SEQ ID NO. 19] (cyclo([4Pal][Pip(5R-OH)]W[NMeE]N[Phe(4-COOH)][Trp(7-CN)][αMeS][Phe(4-CONH2)][Phe(4-CONH2)][Sar][Trp(βS-Me,7-OMe)][X1][Nle]))	0.07 nM	> 1000 nM	0.6 nM
CCCC[C@@H]1NC(=O)[C@@H]2CC[C@@H](C2)NC(=O)[C@H]([C@@H](C)c2c[nH]c3c(OC)cccc23)NC(=O)CN(C)C(=O)[C@H](Cc2cccc(CC(N)=O)c2)NC(=O)[C@H](Cc2ccc(C(=O)O)cc2)NC(=O)[C@](C)(CO)NC(=O)[C@H](Cc2c[nH]c3c(Cl)cccc23)NC(=O)[C@H](Cc2ccncc2)NC(=O)[C@H](CC(N)=O)NC(=O)[C@H](CCC(=O)O)N(C)C(=O)[C@H](Cc2c[nH]c3ccccc23)NC(=O)[C@@H]2CNCCN2C(=O)[C@H](Cc2ccncc2)NC1=O [SEQ ID NO. 153] (cyclo([4Pal][Trp(7-Cl)][αMeS][Phe(4-COOH)][X29][Sar][Trp(βS-Me,7-OMe)][X1][Nle][4Pal][Pip(4-aza)]W[NMeE]N))	0.16 nM	> 1000 nM	2.6 nM
CCCC[C@@H]1NC(=O)[C@@H]2CC[C@@H](C2)NC(=O)[C@H]([C@@H](C)c2c[nH]c3c(OC)cccc23)NC(=O)CN(C)C(=O)[C@H](Cc2ccc(C(N)=O)cc2)NC(=O)[C@H](Cc2ccc(C(N)=O)cc2)NC(=O)[C@](C)(CO)NC(=O)[C@H](Cc2c[nH]c3c(Cl)cccc23)NC(=O)[C@H](Cc2ccncc2)NC(=O)[C@H](CC(N)=O)NC(=O)[C@H](CCC(=O)O)N(C)C(=O)[C@H](Cc2c[nH]c3ncccc23)NC(=O)[C@@H]2CC[C@@H](O)CN2C(=O)[C@H](Cc2ccncc2)NC1=O [SEQ ID NO. 189] (cyclo([4Pal][Trp(7-Cl)][αMeS][Phe(4-CONH2)][Phe(4-CONH2)][Sar][Trp(βS-Me,7-OMe)][X1][Nle][4Pal][Pip(5R-OH)][Trp(7-aza)][NMeE]N))	0.1 nM	> 1000 nM	0.6 nM
